{"source": "patent US4339439A", "about": "“Pharmaceutical methods and compositions” (Bristol-Myers Company, priority 1981, dated 1982)", "key": {"stress ulceration": {"system": "stress ulceration", "details": "two or more days of pretreatment; Strauss et al. 1977; cited from earlier work"}, "gastric acid secretion [1]": {"system": "gastric acid secretion", "details": "cited from earlier work"}, "[2]": {"system": "gastric erosions produced in rats by the oral instillation of 1.0 ml of 0.75 N HCl", "assay": "HCl-induced gastric erosions in rats (modified method of Robert et al.)", "format": "in vivo, rat (Long Evans)", "procedure": "In the tests described below, gastric erosions produced in rats by the oral instillation of 1.0 ml of 0.75 N HCl were compared with those in rats which had been pretreated with etintidine or with etintidine and pepstatin.\nA modification of the method of Robert et al., [Gastroenterology, 77, 433-443 (1979)] was employed to produce gastric erosions. Adult male, Long Evans rats weighing 280-300 g (Blue Spruce Farms, Alton, New York) were used. The animals were individually caged and food and water were removed 24 and 18 hours, respectively, prior to testing. On the following day, etintidine was administered orally to the animals 30 minutes before 1.0 ml of 0.75 N HCl was instilled into the stomach by gavage. […]\nThe stomachs were removed from the animals, cut along the greater curvature, opened, rinsed with saline and pinned out flat in a standard position for macroscopic examination and scoring of erosions. The stomachs were photographed with a Polaroid® Close Up camera (Polaroid Corporation) and scoring was determined from the photographs. […]\nData were analyzed using the t-test for unpaired data and ED50 values were calculated from dose response data using probit analysis [Finney, Probit Analysis, 3rd ed., University Press, Cambridge, England (1971)]. […]"}, "[3]": {"assay": "Toxicity profile in pharmacological studies in animals", "format": "in vivo"}, "gastric acid secretion [4]": {"system": "gastric acid secretion", "assay": "Inhibitory effect on gastric acid secretion versus pepsin activity", "details": "in vivo"}, "histamine H2 -receptor": {"target": "histamine H2 -receptor (Homo sapiens, UniProt P25021)", "sequence (P25021 whole entry, species assumed)": "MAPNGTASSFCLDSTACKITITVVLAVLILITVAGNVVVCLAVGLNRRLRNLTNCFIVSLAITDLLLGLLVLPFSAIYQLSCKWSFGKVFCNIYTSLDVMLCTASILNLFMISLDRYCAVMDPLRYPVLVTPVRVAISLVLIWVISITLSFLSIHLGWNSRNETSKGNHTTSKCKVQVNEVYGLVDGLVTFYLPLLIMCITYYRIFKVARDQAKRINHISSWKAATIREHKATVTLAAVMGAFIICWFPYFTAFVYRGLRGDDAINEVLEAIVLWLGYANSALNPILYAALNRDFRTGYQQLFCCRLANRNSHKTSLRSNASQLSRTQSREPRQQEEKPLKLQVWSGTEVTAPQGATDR", "details": "Cavanagh et al. 1980; cited from earlier work"}, "[5]": {"system": "meal stimulated gastric acid secretion", "details": "patients with inactive duodenal ulcers; Myers and Peterson 1980; cited from earlier work"}, "[6]": {"system": "stomach ulcers in the pylorus ligated (Shay) rat", "assay": "Ulcer formation in the pylorus ligated (Shay) rat", "format": "in vivo", "details": "18 hour pylorus ligated rat, 20 mg/kg po, previous studies in applicant's laboratories"}, "pepsin [7]": {"system": "pepsin", "assay": "Pepsin activity in the 18 hour pylorus ligated rat", "format": "in vivo", "details": "20 mg/kg po"}, "[8]": {"assay": "Absorption and fecal excretion after oral administration", "format": "in vivo, animals"}, "[9]": {"system": "stomach ulcers in the pylorus ligated (Shay) rat", "details": "Umezawa et al. 1970; cited from earlier work"}, "duodenal ulcer": {"system": "duodenal ulcer", "details": "cited from earlier work"}, "gastric ulcer": {"system": "gastric ulcer", "details": "cited from earlier work"}, "[10]": {"details": "all animal species studied; Svendsen et al. 1976; cited from earlier work"}, "[11]": {"details": "daily oral doses of 700 mg for up to three months; Svendsen et al. 1976; cited from earlier work"}, "pepsin [12]": {"system": "pepsin", "details": "cited from earlier work"}, "pepsin [13]": {"system": "pepsin", "details": "in the stomach; U.S. Pat. No. 4,101,650; cited from earlier work"}, "[14]": {"details": "British Medical Journal review 1980"}, "[15]": {"details": "patients with ulcer dyspepsia, Svendsen et al. 1976"}}, "note": "Entries after “also recorded” stand apart in the source; their conditions may differ. Read-outs that look alike come from different tables or passages of the source. Non-standard residues stand in square brackets, D forms with d. Residues, ends and D or L forms follow the SMILES beside them. *: point of attachment. Sta = CC(C)C[C@H](N)[C@@H](O)CC(=O)O; Isovaleryl = CC(C)CC(=O)*"}
{"compound": "CC1(C)[C@@H](OC(=O)CCC(=O)O)CC[C@]2(C)[C@H]3C(=O)C=C4[C@@H]5C[C@@](C)(C(=O)O)CC[C@]5(C)CC[C@@]4(C)[C@]3(C)CC[C@@H]12", "note": "[carbenoxolone]", "values": [{"measurement": "ulcer formation", "setting": "stress ulceration", "result": "significantly decreased ulcer formation"}]}
{"compound": "CN/C(=N/CCSCc1nc[nH]c1C)NC#N", "note": "[cimetidine]", "values": [{"measurement": "ulcer formation", "setting": "stress ulceration", "result": "significantly decreased ulcer formation"}, {"measurement": "effect on pepsin secretion", "setting": "gastric acid secretion [1]; Binder and Donaldson 1978", "result": "less marked"}, {"measurement": "basal and stimulated gastric acid secretion", "setting": "gastric acid secretion [1]; normal volunteers, Burland et al. 1975", "result": "antagonize both basal and stimulated gastric acid secretion"}, {"measurement": "basal and stimulated gastric acid secretion", "setting": "gastric acid secretion [1]; patients with duodenal ulcer, Longstreth et al. 1976", "result": "antagonize both basal and stimulated gastric acid secretion"}]}
{"compound": "C#CCN/C(=N\\C#N)NCCSCc1nc[nH]c1C", "note": "[etintidine]", "values": [{"measurement": "ED50 for inhibition of gastric erosions", "setting": "[2]; etintidine po 30 min before 1.0 ml 0.75 N HCl, combination also received pepstatin 20 mg/kg po 10 min before HCl, FIG. 2", "result": 62, "unit": "mg/kg"}, {"measurement": "formation of gastric erosions", "setting": "[2]; pretreatment with 17.5, 35, 70 or 140 mg/kg etintidine po", "result": "decreased the formation of gastric erosions in a dose-related manner"}, {"measurement": "toxicity", "setting": "[3]", "result": "relatively nontoxic"}, {"measurement": "toxicity profile compared with cimetidine", "setting": "[3]", "result": "substantially the same as that of the commercial H2 -antagonist cimetidine"}, {"measurement": "inhibitory effect on gastric acid secretion compared with pepsin activity", "setting": "gastric acid secretion [4]", "result": "significantly greater than on pepsin activity"}, {"measurement": "potency relative to cimetidine", "setting": "histamine H2 -receptor", "result": "about twice as potent as cimetidine"}, {"measurement": "meal stimulated gastric acid secretion", "setting": "[5]", "result": "effectively antagonizes meal stimulated gastric acid secretion"}]}
{"compound": "CC(C)CC(=O)N[C@H](C(=O)N[C@H](C(=O)N[C@@H](CC(C)C)[C@@H](O)CC(=O)N[C@@H](C)C(=O)N[C@@H](CC(C)C)[C@@H](O)CC(=O)O)C(C)C)C(C)C", "note": "[pepstatin] (Isovaleryl-VV[Sta]A[Sta]-OH)", "values": [{"measurement": "ulcer formation", "setting": "[6]", "result": "antagonized ulcer formation"}, {"measurement": "pepsin activity", "setting": "pepsin [7]", "result": "completely inhibited pepsin activity"}, {"measurement": "absorption upon oral administration", "setting": "[8]", "result": "essentially unabsorbed; also recorded: only poorly absorbed"}, {"measurement": "fraction of compound excreted in the feces", "setting": "[8]; animal studies, within 72 hours", "result": "more than 90%"}, {"measurement": "formation of stomach ulcers", "setting": "[9]", "result": "prevent the formation of stomach ulcers"}, {"measurement": "healing or symptomatology of duodenal ulcer versus placebo", "setting": "duodenal ulcer; 100 mg seven times a day, double-blind randomized trial, Bonnevie et al. 1979", "result": "no significant difference between pepstatin and placebo"}, {"measurement": "benefit / healing in patients with duodenal ulcer", "setting": "duodenal ulcer; [14]", "result": "ineffective"}, {"measurement": "preventing recurrent bleeding in patients admitted with haematemesis and melaena", "setting": "duodenal ulcer; [14]", "result": "ineffective"}, {"measurement": "healing or symptomatology of gastric ulcer versus placebo", "setting": "gastric ulcer; 100 mg seven times a day, double-blind randomized trial, Svendsen et al. 1979", "result": "not able to detect any influence of pepstatin"}, {"measurement": "LD50", "setting": "[10]", "result": "exceeded 3000 mg/kg"}, {"measurement": "side effects", "setting": "[11]", "result": "no side effects were observed"}, {"measurement": "gastric acidity", "setting": "pepsin [12]; [15]", "result": "no effect on the gastric acidity"}, {"measurement": "gastric peptic activity", "setting": "pepsin [12]; [15]", "result": "inhibits gastric peptic activity"}, {"measurement": "duration of inhibition of peptic activity of gastric juice", "setting": "pepsin [12]; ulcer patients, 100 mg doses seven times a day", "result": 18, "unit": "hours a day"}, {"measurement": "duration of pepsin suppression", "setting": "pepsin [13]", "result": "about 1 hours"}]}
{"compound": "Amylopectin", "values": [{"measurement": "benefit / healing in patients with duodenal ulcer", "setting": "duodenal ulcer; [14]", "result": "no significant benefit"}]}
{"compound": "sucralfate", "values": [{"measurement": "benefit in patients with gastric ulcer", "setting": "gastric ulcer; [14]", "result": "none"}]}
